Data as given in paper PMC12090182, “Repurposing of the RIPK1-Selective Benzo[1,4]oxazepin-4-one Scaffold for the Development of a Type III LIMK1/2 Inhibitor” (ACS Chemical Biology, 2025).
Where two headings read alike, the source gives them in different places.

Columns and labels:
Assay in all cases: biochemical
Type in all cases: binding
[1] = target: 468 kinases including some pathogenic mutants (Homo sapiens, UniProt Q9UM73, L1196M); conditions: read-out: Percent Control
[2] = target: 468 kinases including some pathogenic mutants (Homo sapiens, UniProt Q9UQM7); conditions: CAMK2A (Entrez CAMK2A), 100 nM; read-out: Percent Control
[3] = target: 468 kinases including some pathogenic mutants (Homo sapiens, UniProt P10721, L576P); conditions: read-out: Percent Control
Chain of 468 kinases including some pathogenic mutants (Homo sapiens, UniProt P10721, L576P) (P10721 26-976 L576P): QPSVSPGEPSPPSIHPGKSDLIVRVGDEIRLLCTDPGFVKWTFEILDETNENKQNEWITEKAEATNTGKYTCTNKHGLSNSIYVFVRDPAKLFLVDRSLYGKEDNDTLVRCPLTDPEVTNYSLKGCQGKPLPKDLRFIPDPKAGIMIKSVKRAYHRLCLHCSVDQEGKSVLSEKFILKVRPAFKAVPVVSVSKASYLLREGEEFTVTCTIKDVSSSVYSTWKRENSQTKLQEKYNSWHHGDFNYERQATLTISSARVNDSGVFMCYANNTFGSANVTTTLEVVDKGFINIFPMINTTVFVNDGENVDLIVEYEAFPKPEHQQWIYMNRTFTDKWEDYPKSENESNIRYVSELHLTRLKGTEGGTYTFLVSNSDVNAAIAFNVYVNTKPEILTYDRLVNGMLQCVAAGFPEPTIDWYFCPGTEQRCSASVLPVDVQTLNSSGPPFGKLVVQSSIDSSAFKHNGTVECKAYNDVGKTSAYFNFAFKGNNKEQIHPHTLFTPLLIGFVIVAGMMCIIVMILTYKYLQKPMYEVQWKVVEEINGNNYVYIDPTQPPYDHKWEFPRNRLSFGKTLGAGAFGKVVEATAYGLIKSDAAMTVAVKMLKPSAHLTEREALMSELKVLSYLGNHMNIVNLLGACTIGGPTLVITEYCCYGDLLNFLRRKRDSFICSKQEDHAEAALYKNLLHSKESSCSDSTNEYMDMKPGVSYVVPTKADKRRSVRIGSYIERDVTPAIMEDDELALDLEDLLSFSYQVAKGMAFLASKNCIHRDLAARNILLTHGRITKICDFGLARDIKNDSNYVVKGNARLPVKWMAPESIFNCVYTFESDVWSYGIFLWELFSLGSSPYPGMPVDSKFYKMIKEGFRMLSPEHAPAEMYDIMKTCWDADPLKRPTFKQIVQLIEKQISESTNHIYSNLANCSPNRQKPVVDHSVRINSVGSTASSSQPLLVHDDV

[4] = target: 468 kinases including some pathogenic mutants (Homo sapiens, UniProt P42336); conditions: PIK3CA (Entrez PIK3CA), 100 nM; read-out: Percent Control
[5] = target: 468 kinases including some pathogenic mutants (Homo sapiens, UniProt Q13464); conditions: ROCK1 (Entrez ROCK1), 100 nM; read-out: Percent Control
[6] = target: 468 kinases including some pathogenic mutants (Homo sapiens, UniProt Q9BX84); conditions: TRPM6 (Entrez TRPM6), 1000 nM; read-out: Percent Control
[7] = target: 468 kinases including some pathogenic mutants (Homo sapiens, UniProt P00519, F317L); conditions: read-out: Percent Control
Chain of 468 kinases including some pathogenic mutants (Homo sapiens, UniProt P00519, F317L) (P00519 whole entry F317L): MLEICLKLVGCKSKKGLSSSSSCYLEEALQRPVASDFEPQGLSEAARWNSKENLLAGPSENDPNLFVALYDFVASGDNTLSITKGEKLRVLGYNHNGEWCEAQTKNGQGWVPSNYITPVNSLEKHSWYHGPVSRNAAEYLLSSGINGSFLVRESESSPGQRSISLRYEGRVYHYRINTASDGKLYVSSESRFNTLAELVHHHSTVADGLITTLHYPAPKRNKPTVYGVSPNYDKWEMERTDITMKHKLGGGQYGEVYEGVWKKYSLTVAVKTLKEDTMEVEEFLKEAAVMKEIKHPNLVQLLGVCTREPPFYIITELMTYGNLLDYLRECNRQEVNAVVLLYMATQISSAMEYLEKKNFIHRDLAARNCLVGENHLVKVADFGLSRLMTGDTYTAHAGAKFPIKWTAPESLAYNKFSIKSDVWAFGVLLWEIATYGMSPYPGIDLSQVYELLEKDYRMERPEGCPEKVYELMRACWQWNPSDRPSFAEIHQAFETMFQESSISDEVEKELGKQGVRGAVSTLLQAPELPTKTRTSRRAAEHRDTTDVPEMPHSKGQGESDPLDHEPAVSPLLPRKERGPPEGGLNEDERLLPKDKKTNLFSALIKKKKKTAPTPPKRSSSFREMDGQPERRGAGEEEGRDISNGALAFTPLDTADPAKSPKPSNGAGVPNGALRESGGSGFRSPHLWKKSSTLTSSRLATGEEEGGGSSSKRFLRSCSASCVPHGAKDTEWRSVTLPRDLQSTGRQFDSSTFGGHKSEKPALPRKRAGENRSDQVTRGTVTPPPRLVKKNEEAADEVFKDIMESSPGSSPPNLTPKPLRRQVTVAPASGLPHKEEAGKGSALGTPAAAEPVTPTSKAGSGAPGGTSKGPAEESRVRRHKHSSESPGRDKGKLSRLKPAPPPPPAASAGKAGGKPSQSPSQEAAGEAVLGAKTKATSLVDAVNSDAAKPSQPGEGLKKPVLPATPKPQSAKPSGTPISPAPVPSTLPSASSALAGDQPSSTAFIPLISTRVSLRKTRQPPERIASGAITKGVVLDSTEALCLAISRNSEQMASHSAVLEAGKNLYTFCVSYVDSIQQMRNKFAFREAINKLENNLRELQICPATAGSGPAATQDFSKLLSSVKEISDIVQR

[8] = target: 468 kinases including some pathogenic mutants (Homo sapiens, UniProt Q9H1R3); conditions: MYLK2 (Entrez MYLK2), 100 nM; read-out: Percent Control
[9] = target: 468 kinases including some pathogenic mutants (Homo sapiens, UniProt P10721); conditions: 100 nM, read-out: Percent Control
Chain of 468 kinases including some pathogenic mutants (Homo sapiens, UniProt P10721) (P10721 26-976, change not shown): as the sequence (P10721 26-976 L576P) above, with P551L counted along it

[10] = target: 468 kinases including some pathogenic mutants (Homo sapiens, UniProt Q13555); conditions: CAMK2G (Entrez CAMK2G), 100 nM; read-out: Percent Control
[11] = target: 468 kinases including some pathogenic mutants (Homo sapiens, UniProt O95819); conditions: MAP4K4 (Entrez MAP4K4), 100 nM; read-out: Percent Control
[12] = target: 468 kinases including some pathogenic mutants (Homo sapiens, UniProt Q13177); conditions: PAK2 (Entrez PAK2), 100 nM; read-out: Percent Control
[13] = target: 468 kinases including some pathogenic mutants (Homo sapiens, UniProt Q13976); conditions: PRKG1 (Entrez PRKG1), 100 nM; read-out: Percent Control
Chain of 468 kinases including some pathogenic mutants (Homo sapiens, UniProt Q13976) (Q13976 whole entry, change not shown): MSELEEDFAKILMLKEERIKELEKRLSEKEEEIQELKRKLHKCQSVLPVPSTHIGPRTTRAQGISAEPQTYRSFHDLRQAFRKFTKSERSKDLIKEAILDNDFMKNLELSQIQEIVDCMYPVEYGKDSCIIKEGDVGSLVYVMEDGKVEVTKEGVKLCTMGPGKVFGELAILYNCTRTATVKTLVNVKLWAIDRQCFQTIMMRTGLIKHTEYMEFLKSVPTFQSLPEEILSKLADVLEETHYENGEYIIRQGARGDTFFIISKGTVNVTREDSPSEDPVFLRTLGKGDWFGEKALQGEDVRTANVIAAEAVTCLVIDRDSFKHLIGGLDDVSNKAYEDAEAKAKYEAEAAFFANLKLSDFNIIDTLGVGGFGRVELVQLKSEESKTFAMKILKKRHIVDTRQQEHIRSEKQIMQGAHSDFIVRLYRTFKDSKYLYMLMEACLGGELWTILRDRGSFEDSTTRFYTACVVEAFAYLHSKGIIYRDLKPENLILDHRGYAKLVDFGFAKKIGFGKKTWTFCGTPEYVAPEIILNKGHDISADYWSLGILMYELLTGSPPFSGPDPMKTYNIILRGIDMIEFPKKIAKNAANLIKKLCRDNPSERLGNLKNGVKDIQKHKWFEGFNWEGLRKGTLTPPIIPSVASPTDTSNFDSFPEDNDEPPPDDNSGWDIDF

[14] = target: 468 kinases including some pathogenic mutants (Homo sapiens, UniProt P35590); conditions: TIE1 (Entrez TIE1), 100 nM; read-out: Percent Control
[15] = target: 468 kinases including some pathogenic mutants (Homo sapiens, UniProt P27448); conditions: MARK3 (Entrez MARK3), 100 nM; read-out: Percent Control
[16] = target: 468 kinases including some pathogenic mutants (Homo sapiens, UniProt P48730); conditions: CSNK1D (Entrez CSNK1D), 100 nM; read-out: Percent Control
Chain of 468 kinases including some pathogenic mutants (Homo sapiens, UniProt P48730) (P48730 whole entry, change not shown): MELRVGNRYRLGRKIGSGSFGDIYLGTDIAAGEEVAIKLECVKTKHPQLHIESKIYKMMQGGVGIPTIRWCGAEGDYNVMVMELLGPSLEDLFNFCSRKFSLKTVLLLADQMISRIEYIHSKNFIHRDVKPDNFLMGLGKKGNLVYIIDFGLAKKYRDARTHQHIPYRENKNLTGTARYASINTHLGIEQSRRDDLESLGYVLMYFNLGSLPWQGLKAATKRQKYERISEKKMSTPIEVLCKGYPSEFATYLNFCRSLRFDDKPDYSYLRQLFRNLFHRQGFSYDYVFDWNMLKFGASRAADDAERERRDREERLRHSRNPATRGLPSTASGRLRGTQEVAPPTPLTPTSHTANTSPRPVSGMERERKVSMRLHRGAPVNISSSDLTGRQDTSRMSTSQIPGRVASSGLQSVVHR

[17] = target: 468 kinases including some pathogenic mutants (Homo sapiens, UniProt Q8NFD2); conditions: ANKK1 (Entrez ANKK1), 100 nM; read-out: Percent Control
Chain of 468 kinases including some pathogenic mutants (Homo sapiens, UniProt Q8NFD2) (Q8NFD2 whole entry, change not shown): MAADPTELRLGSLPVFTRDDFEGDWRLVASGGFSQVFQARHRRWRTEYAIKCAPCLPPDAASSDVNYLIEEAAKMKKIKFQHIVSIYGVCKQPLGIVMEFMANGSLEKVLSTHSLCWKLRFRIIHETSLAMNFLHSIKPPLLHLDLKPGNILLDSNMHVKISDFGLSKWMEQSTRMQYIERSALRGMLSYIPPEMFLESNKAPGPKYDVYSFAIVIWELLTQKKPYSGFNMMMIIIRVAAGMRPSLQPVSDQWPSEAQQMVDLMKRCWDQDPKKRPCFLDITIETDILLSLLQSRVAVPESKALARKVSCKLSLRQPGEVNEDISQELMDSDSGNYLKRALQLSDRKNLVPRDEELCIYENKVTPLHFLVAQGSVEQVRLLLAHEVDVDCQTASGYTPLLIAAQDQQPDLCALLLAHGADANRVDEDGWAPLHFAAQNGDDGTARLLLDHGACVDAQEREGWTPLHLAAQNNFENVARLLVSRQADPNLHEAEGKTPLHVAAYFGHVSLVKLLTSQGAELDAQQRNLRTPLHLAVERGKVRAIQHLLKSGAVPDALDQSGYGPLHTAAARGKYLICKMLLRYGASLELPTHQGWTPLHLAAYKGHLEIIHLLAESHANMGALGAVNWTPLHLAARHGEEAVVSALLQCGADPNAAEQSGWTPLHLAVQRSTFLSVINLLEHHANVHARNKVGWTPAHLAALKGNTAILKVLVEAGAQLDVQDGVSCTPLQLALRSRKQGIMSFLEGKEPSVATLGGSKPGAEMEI

[18] = target: 468 kinases including some pathogenic mutants (Homo sapiens, UniProt O15530); conditions: PDPK1 (Entrez PDPK1), 100 nM; read-out: Percent Control
[19] = target: 468 kinases including some pathogenic mutants (Homo sapiens, UniProt Q6ZN16); conditions: MAP3K15 (Entrez MAP3K15), 1000 nM; read-out: Percent Control
[20] = target: 468 kinases including some pathogenic mutants (Homo sapiens, UniProt P07948); conditions: LYN (Entrez LYN), 100 nM; read-out: Percent Control
[21] = target: 468 kinases including some pathogenic mutants (Homo sapiens, UniProt Q13557); conditions: CAMK2D (Entrez CAMK2D), 100 nM; read-out: Percent Control
[22] = target: 468 kinases including some pathogenic mutants (Homo sapiens, UniProt Q9UQB9); conditions: AURKC (Entrez AURKC), 100 nM; read-out: Percent Control
[23] = target: 468 kinases including some pathogenic mutants (Homo sapiens, UniProt Q8WXR4); conditions: MYO3B (Entrez MYO3B), 100 nM; read-out: Percent Control
[24] = target: 468 kinases including some pathogenic mutants (Homo sapiens, UniProt Q8N568); conditions: DCAMKL2 (Entrez DCLK2), 100 nM; read-out: Percent Control
[25] = target: 468 kinases including some pathogenic mutants (Homo sapiens, UniProt O43318); conditions: TAK1 (Entrez MAP3K7), 100 nM; read-out: Percent Control
[26] = target: 468 kinases including some pathogenic mutants (Homo sapiens, UniProt P16591); conditions: FER (Entrez FER), 100 nM; read-out: Percent Control
[27] = target: 468 kinases including some pathogenic mutants (Homo sapiens, UniProt P49840); conditions: GSK3A (Entrez GSK3A), 100 nM; read-out: Percent Control
[28] = target: 468 kinases including some pathogenic mutants (Homo sapiens, UniProt Q14680); conditions: MELK (Entrez MELK), 1000 nM; read-out: Percent Control
[29] = target: 468 kinases including some pathogenic mutants (Homo sapiens, UniProt O95747); conditions: OSR1 (Entrez OXSR1), 100 nM; read-out: Percent Control

`CN1C(=O)[C@@H](N2CCc3c(nn(Cc4ccccc4)c3C(N)=O)C2=O)COc2cc(Cl)ccc21` [Compound 10, (S)-2-benzyl-6-(8-chloro-5-methyl-4-oxo-2,3,4,5-tetrahydrobenzo[b][1,4]oxazepin-3-yl)-7-oxo-4,5,6,7-tetrahydro-2H-pyrazolo[3,4-c]pyridine-3-carboxamide] gave a remaining activity at 0.1 µM [1] of 89%, a remaining activity at 0.1 µM [2] of 76% and a remaining activity at 0.1 µM [3] of 72%. The remaining activity at 0.1 µM [4] was 71%, the remaining activity at 0.1 µM [5] was 76% and the remaining activity at 1 µM [6] was 100%. It also gave a remaining activity at 0.1 µM [7] of 88%, a remaining activity at 0.1 µM [8] of 90% and a remaining activity at 0.1 µM ([9]; KIT (Entrez KIT)) of 69%. The remaining activity at 0.1 µM ([9]; KIT-autoinhibited (Entrez KIT)) was 100%, the remaining activity at 0.1 µM [10] was 78% and the remaining activity at 0.1 µM [11] was 99%. For the same compound, the remaining activity at 0.1 µM [12] was 88%, the remaining activity at 0.1 µM [13] was 78% and the remaining activity at 0.1 µM [14] was 68%. It also gave a remaining activity at 0.1 µM [15] of 100%, a remaining activity at 0.1 µM [16] of 79% and a remaining activity at 0.1 µM [17] of 77%. For the same compound, the remaining activity at 0.1 µM [18] was 100%, the remaining activity at 1 µM [19] was 100% and the remaining activity at 0.1 µM [20] was 100%. The remaining activity at 0.1 µM [21] was 80%, the remaining activity at 0.1 µM [22] was 67% and the remaining activity at 0.1 µM [23] was 97%. The remaining activity at 0.1 µM [24] was 100%, the remaining activity at 0.1 µM [25] was 100% and the remaining activity at 0.1 µM [26] was 100%. For the same compound, the remaining activity at 0.1 µM [27] was 100%, the remaining activity at 1 µM [28] was 100% and the remaining activity at 0.1 µM [29] was 100%.
